Laboratory results as given in ChEMBL document CHEMBL5344418, “Recent developments in antimalarial activities of 4-aminoquinoline derivatives” (Eur J Med Chem, 2023).
pIC50: −log10 of the molar value.

Assays:
[1] = Cytotoxicity against African green monkey Vero cells assessed as reduction in cell viability incubated for 24 hrs by MTT assay; assay type: toxicity, cell-based; settings: African green monkey (Chlorocebus sabaeus)
Plasmodium falciparum [2] = test: Antiplasmodial activity against Plasmodium falciparum K1 assessed as growth inhibition measured after 72 hrs by SYBR green dye based assay; assay type: functional, organism-based; settings: K1, 72 h
Plasmodium falciparum [3] = test: Antiplasmodial activity against Plasmodium falciparum 3D7 assessed as growth inhibition measured after 72 hrs by SYBR green dye based assay; assay type: functional, organism-based; settings: 3D7, 72 h
Plasmodium falciparum [4] = test: Antiplasmodial activity against Plasmodium falciparum W2 assessed as reduction in plasmodial growth after 48 hrs by fluorescence based analysis; assay type: functional, organism-based; settings: W2, 48 h
Plasmodium falciparum [5] = test: Antiplasmodial activity against chloroquine-sensitive Plasmodium falciparum NF54 by lactate dehydrogenase assay; assay type: functional, organism-based
[6] = Cytotoxicity against Chinese hamster CHO cells assessed as reduction in cell viability by MTT assay; assay type: toxicity, cell-based; settings: Chinese hamster (Cricetulus griseus)

Row | SMILES | IC50 at 24 h [1] | pIC50 (Plasmodium falciparum [2]) | pIC50 (Plasmodium falciparum [3]) | pIC50 (Plasmodium falciparum [4]) | other results
1 | CCN(CC)c1ccc2c(c1)C(=O)N(CCC(=O)NCCNc1ccnc3cc(Cl)ccc13)C2=O | 203000 nM |  |  |  | 
2 | CCN1CCN(CC(Cc2ccccc2)Nc2ccnc3cc(Cl)ccc23)CC1 (stereo not drawn) |  | 7.15 | 6.37 |  | 
3 | O=C(CN1C(=O)c2ccc(N3CCOCC3)cc2C1=O)NCCCCCCNc1ccnc2cc(Cl)ccc12 | 20200 nM |  |  | 5.75 | 
4 | Clc1ccc2c(NC(Cc3ccccc3)CN3CCN(Cc4ccc5c(c4)OCO5)CC3)ccnc2c1 (stereo not drawn) |  | 7.05 | 6.12 |  | 
5 | COc1ccc(/C=C/C(=O)c2ccc(S(=O)(=O)NCCCNc3cncc4cc(Cl)ccc34)cc2)c(OC)c1OC |  |  |  |  | pIC50 (Plasmodium falciparum [5]): 6.24; pIC50 [6]: 4.65
6 | O=C(CCN1C(=O)c2ccc(F)cc2C1=O)NCCCCNc1ccnc2cc(Cl)ccc12 | 110000 nM |  |  | 6.66 | 
7 | O=C(CN1C(=O)c2ccc(N3CCOCC3)cc2C1=O)NCCNc1ccnc2cc(Cl)ccc12 | > 203000 nM |  |  | 5.49 | 
8 | CCN(CC)c1ccc2c(c1)C(=O)N(CCC(=O)NCCCCCCNc1ccnc3cc(Cl)ccc13)C2=O | > 182000 nM |  |  | 6.28 | 
9 | O=C(CCN1C(=O)c2ccc(N3CCN(CCO)CC3)cc2C1=O)NCCNc1ccnc2cc(Cl)ccc12 |  |  |  | 6.55 | 
10 | CCN1CCN(CC(CC(C)C)Nc2ccnc3cc(Cl)ccc23)CC1 (stereo not drawn) |  | 7.01 | 7.24 |  | 
11 | CSCCC(CN1CCN(Cc2ccccc2)CC1)Nc1ccnc2cc(Cl)ccc12 (stereo not drawn) |  | < 5.30 | 5.51 |  | 
12 | O=C(/C=C/c1ccc(F)cc1F)c1ccc(S(=O)(=O)NCCCNc2cncc3cc(Cl)ccc23)cc1 |  |  |  |  | pIC50 (Plasmodium falciparum [5]): 6.30; pIC50 [6]: 4.65
13 | O=C(/C=C/c1ccc(Cl)cc1)c1ccc(S(=O)(=O)NCCCNc2cncc3cc(Cl)ccc23)cc1 |  |  |  |  | pIC50 (Plasmodium falciparum [5]): 7.00; pIC50 [6]: 4.39
14 | O=C(CCN1C(=O)c2ccccc2C1=O)NCCCCNc1ccnc2cc(Cl)ccc12 | > 222000 nM |  |  | 6.39 | 
15 | O=C(CCN1C(=O)c2ccc(N3CCOCC3)cc2C1=O)NCCNc1ccnc2cc(Cl)ccc12 | 26500 nM |  |  | 6.89 | 
16 | O=C(CCN1C(=O)c2ccccc2C1=O)NCCCCCCNc1ccnc2cc(Cl)ccc12 | 87500 nM |  |  | 6.54 | 
17 | CCN(CC)c1ccc2c(c1)C(=O)N(CC(=O)NCCNc1ccnc3cc(Cl)ccc13)C2=O | 44400 nM |  |  | 5.94 | 
18 | CCN1CCN(CC(C)Nc2ccnc3cc(Cl)ccc23)CC1 (stereo not drawn) |  | 6.44 | 6.90 |  | 
19 | O=C(/C=C/c1ccccc1F)c1ccc(S(=O)(=O)NCCCNc2cncc3cc(Cl)ccc23)cc1 |  |  |  |  | pIC50 (Plasmodium falciparum [5]): 6.07; pIC50 [6]: 4.34
20 | O=C(CN1C(=O)c2ccc(F)cc2C1=O)NCCNc1cccc2cc(Cl)ccc12 | > 235000 nM |  |  | 5.70 | 
21 | O=C(CCCN1C(=O)c2ccccc2C1=O)NCCCCCCNc1ccnc2cc(Cl)ccc12 | > 203000 nM |  |  | 5.80 | 
22 | CC(C)CC(CN1CCN(c2ncccn2)CC1)Nc1ccnc2cc(Cl)ccc12 (stereo not drawn) |  | 6.45 | 6.34 |  | 
23 | CCN1CCN(CC(CC(C)C)Nc2ccnc3cc(C(F)(F)F)ccc23)CC1 (stereo not drawn) |  | 6.10 | 7.61 |  | 
24 | O=C(CN1C(=O)c2ccc(N3CCN(CCO)CC3)cc2C1=O)NCCCCCCNc1ccnc2cc(Cl)ccc12 | > 169000 nM |  |  | 6.34 | 
25 | CC(C)CC(CN1CCN(Cc2ccc3c(c2)OCO3)CC1)Nc1ccnc2cc(Cl)ccc12 (stereo not drawn) |  | 6.34 | 6.68 |  | 

Row | SMILES | IC50 at 24 h [1] | pIC50 (Plasmodium falciparum [2]) | pIC50 (Plasmodium falciparum [3]) | pIC50 (Plasmodium falciparum [4]) | other results
26 | COc1ccc(/C=C/C(=O)c2ccc(S(=O)(=O)NCCNc3cncc4cc(Cl)ccc34)cc2)cc1 |  |  |  |  | pIC50 (Plasmodium falciparum [5]): 6.31; pIC50 [6]: 4.76
27 | O=C(CCN1C(=O)c2ccccc2C1=O)NCCCCCCCCNc1ccnc2cc(Cl)ccc12 | > 198000 nM |  |  | 6.82 | 
28 | COc1ccc(/C=C/C(=O)c2ccc(S(=O)(=O)NCCCNc3cncc4cc(Cl)ccc34)cc2)cc1OC |  |  |  |  | pIC50 (Plasmodium falciparum [5]): 6.49; pIC50 [6]: 4.36
29 | O=C(CCN1C(=O)c2ccc(N3CCOCC3)cc2C1=O)NCCCCNc1ccnc2cc(Cl)ccc12 | 136000 nM |  |  | 6.66 | 
30 | O=C(/C=C/c1ccccc1Br)c1ccc(S(=O)(=O)NCCCNc2cncc3cc(Cl)ccc23)cc1 |  |  |  |  | pIC50 (Plasmodium falciparum [5]): 7.00; pIC50 [6]: 4.36
31 | O=C(CCCN1C(=O)c2ccccc2C1=O)NCCCCCCCCNc1ccnc2cc(Cl)ccc12 | 102000 nM |  |  | 6.24 | 
32 | O=C(CN1C(=O)c2ccc(N3CCOCC3)cc2C1=O)NCCCCNc1ccnc2cc(Cl)ccc12 | > 192000 nM |  |  | 5.89 | 
33 | CC(C)CC(CN1CCN(c2ccccc2)CC1)Nc1ccnc2cc(Cl)ccc12 (stereo not drawn) |  | < 6.00 | 6.28 |  | 
34 | O=C(CN1C(=O)c2ccc(F)cc2C1=O)NCCCCNc1ccnc2cc(Cl)ccc12 | > 220000 nM |  |  | 5.98 | 
35 | CC(CN1CCN(c2ccccc2)CC1)Nc1ccnc2cc(Cl)ccc12 (stereo not drawn) |  | 6.11 | 6.27 |  | 
36 | CC(CN1CCN(Cc2ccc3c(c2)OCO3)CC1)Nc1ccnc2cc(Cl)ccc12 (stereo not drawn) |  | 7.15 | 6.97 |  | 
37 | CCOC(=O)N1CCN(CCNc2ccnc3cc(Cl)ccc23)CC1 |  | 6.79 | 6.05 |  | 
38 | O=C(CCN1C(=O)c2ccccc2C1=O)NCCNc1ccnc2cc(Cl)ccc12 | > 237000 nM |  |  | 6.52 | 
39 | O=C(CCN1C(=O)c2ccc(F)cc2C1=O)NCCNc1ccnc2cc(Cl)ccc12 | 93200 nM |  |  | 6.44 | 
40 | O=C(CN1C(=O)c2ccc(F)cc2C1=O)NCCCCCCNc1ccnc2cc(Cl)ccc12 | > 207000 nM |  |  | 5.83 | 
41 | Clc1ccc2c(NC(Cc3ccccc3)CN3CCN(c4ccccc4)CC3)ccnc2c1 (stereo not drawn) |  | 5.96 | < 6.00 |  | 
42 | CC(C)CC(CN1CCN(Cc2ccc3c(c2)OCO3)CC1)Nc1ccnc2cc(C(F)(F)F)ccc12 (stereo not drawn) |  | 7.33 | 7.65 |  | 
43 | O=C(CCN1C(=O)c2ccc(F)cc2C1=O)NCCCCCCNc1ccnc2cc(Cl)ccc12 | 57200 nM |  |  | 6.18 | 
44 | CCC(C)C(CN1CCN(CC)CC1)Nc1ccnc2cc(Cl)ccc12 (stereo not drawn) |  | 6.30 | 6.94 |  | 
45 | Clc1ccc2c(NCCN3CCN(Cc4ccc5c(c4)OCO5)CC3)ccnc2c1 |  | 7.33 | 6.28 |  | 
46 | O=C(CN1C(=O)c2ccc(N3CCN(CCO)CC3)cc2C1=O)NCCCCNc1ccnc2cc(Cl)ccc12 | > 177000 nM |  |  | 6.07 | 
47 | CC(CN1CCN(Cc2ccccc2)CC1)Nc1ccnc2cc(Cl)ccc12 (stereo not drawn) |  | 7.08 | 6.39 |  | 
48 | O=C(c1ccco1)N1CCN(CCNc2ccnc3cc(Cl)ccc23)CC1 |  | 5.37 | 6.00 |  | 
49 | O=C(CN1C(=O)c2ccccc2C1=O)NCCCCCCNc1ccnc2cc(Cl)ccc12 | 248000 nM |  |  | 5.47 | 
50 | Clc1ccc2c(NC(Cc3ccccc3)CN3CCN(Cc4ccccc4)CC3)ccnc2c1 (stereo not drawn) |  | < 5.30 | < 5.30 |  | 

Row | SMILES | IC50 at 24 h [1] | pIC50 (Plasmodium falciparum [2]) | pIC50 (Plasmodium falciparum [3]) | pIC50 (Plasmodium falciparum [4]) | other results
51 | CCN1CCN(CC(Nc2ccnc3cc(Cl)ccc23)n2ccc3ccccc32)CC1 (stereo not drawn) |  | < 5.30 | 5.38 |  | 
52 | CCN(CC)c1ccc2c(c1)C(=O)N(CC(=O)NCCCCNc1ccnc3cc(Cl)ccc13)C2=O | 46900 nM |  |  | 5.93 | 
53 | CSCCC(CN1CCN(c2ccccc2)CC1)Nc1ccnc2cc(Cl)ccc12 (stereo not drawn) |  | < 5.30 | < 5.30 |  | 
54 | O=C(/C=C/c1ccccc1)c1ccc(S(=O)(=O)NCCCNc2cncc3cc(Cl)ccc23)cc1 |  |  |  |  | pIC50 (Plasmodium falciparum [5]): 5.78; pIC50 [6]: < 4.30
55 | COc1ccc(/C=C/C(=O)c2ccc(S(=O)(=O)NCCCNc3cncc4cc(Cl)ccc34)cc2)cc1 |  |  |  |  | pIC50 (Plasmodium falciparum [5]): 6.96; pIC50 [6]: 4.36
56 | O=C(CN1C(=O)c2ccccc2C1=O)NCCCCCCCCNc1ccnc2cc(Cl)ccc12 | > 203000 nM |  |  | 6.62 | 
57 | CCN(CC)c1ccc2c(c1)C(=O)N(CCC(=O)NCCCCNc1ccnc3cc(Cl)ccc13)C2=O | 84400 nM |  |  | 6.59 | 
58 | CC(C)CC(CN1CCN(Cc2ccccc2)CC1)Nc1ccnc2cc(Cl)ccc12 (stereo not drawn) |  | < 6.00 | 6.81 |  | 
59 | O=C(CN1C(=O)c2ccccc2C1=O)NCCNc1ccnc2cc(Cl)ccc12 | > 245000 nM |  |  | 5.25 | 
60 | O=C(/C=C/c1ccc(F)c(F)c1)c1ccc(S(=O)(=O)NCCCNc2cncc3cc(Cl)ccc23)cc1 |  |  |  |  | pIC50 (Plasmodium falciparum [5]): 5.59; pIC50 [6]: < 3.52
61 | O=C(CCN1C(=O)c2ccc(N3CCOCC3)cc2C1=O)NCCCCCCNc1ccnc2cc(Cl)ccc12 | > 178000 nM |  |  | 6.19 | 
62 | O=C(CCN1C(=O)c2ccc(N3CCN(CCO)CC3)cc2C1=O)NCCCCCCNc1ccnc2cc(Cl)ccc12 | > 165000 nM |  |  | 6.74 | 
63 | Clc1ccc2c(NC(CN3CCN(Cc4ccccc4)CC3)n3ccc4ccccc43)ccnc2c1 (stereo not drawn) |  | 6.28 | 6.22 |  | 
64 | Clc1ccc2c(NCCN3CCN(c4ncccn4)CC3)ccnc2c1 |  | 6.56 | 6.97 |  | 
65 | O=C(/C=C/c1c(F)cccc1F)c1ccc(S(=O)(=O)NCCCNc2cncc3cc(Cl)ccc23)cc1 |  |  |  |  | pIC50 (Plasmodium falciparum [5]): 6.27; pIC50 [6]: 4.56
66 | O=C(CCN1C(=O)c2ccc(N3CCN(CCO)CC3)cc2C1=O)NCCCCNc1ccnc2cc(Cl)ccc12 | 169000 nM |  |  | 6.85 | 
67 | O=C(CCCN1C(=O)c2ccccc2C1=O)NCCNc1ccnc2cc(Cl)ccc12 | > 229000 nM |  |  | 6.55 | 
68 | Cc1ccc(/C=C/C(=O)c2ccc(S(=O)(=O)NCCCNc3cncc4cc(Cl)ccc34)cc2)cc1 |  |  |  |  | pIC50 (Plasmodium falciparum [5]): 6.43; pIC50 [6]: 4.60
69 | CCN(CC)c1ccc2c(c1)C(=O)N(CC(=O)NCCCCCCNc1ccnc3cc(Cl)ccc13)C2=O | > 187000 nM |  |  | 5.91 | 
70 | O=C(CN1C(=O)c2ccccc2C1=O)NCCCCNc1ccnc2cc(Cl)ccc12 | > 229000 nM |  |  | 5.44 | 
71 | CCN1CCN(CC(CCSC)Nc2ccnc3cc(Cl)ccc23)CC1 (stereo not drawn) |  | < 5.30 | 5.58 |  | 
72 | O=C(/C=C/c1ccc(F)cc1)c1ccc(S(=O)(=O)NCCCNc2cncc3cc(Cl)ccc23)cc1 |  |  |  |  | pIC50 (Plasmodium falciparum [5]): 6.55; pIC50 [6]: 4.83
73 | O=C(CCCN1C(=O)c2ccccc2C1=O)NCCCCNc1ccnc2cc(Cl)ccc12 | > 215000 nM |  |  | 6.08 | 
74 | O=C(CN1C(=O)c2ccc(N3CCN(CCO)CC3)cc2C1=O)NCCNc1ccnc2cc(Cl)ccc12 | > 186000 nM |  |  | 5.98 | 
75 | CCOC(=O)N1CCN(CC(CC(C)C)Nc2ccnc3cc(Cl)ccc23)CC1 (stereo not drawn) |  | 6.38 | 6.07 |  | 
